The values below come from patent US9181253B2 (The United States of America, as represented by the …, priority 2008, dated 2015).

In test [1] the target is hA3AR (Homo sapiens (Human), UniProt P0DMS8). The test is described as follows: Radioligand membrane binding at hA3AR (Example 6). The settings on record: CHO cells expressing hA3AR; [125I]I-AB-MECA; n = 3-5; read-out: Affinity Ki, nM A3.
Method: Chinese hamster ovary (CHO) cells stably expressing either the recombinant hA1 or hA3AR and human embryonic kidney (HEK) 293 cells stably expressing the human (h) A2AAR were cultured in DMEM and F12 (1:1), supplemented with 10% fetal bovine serum, 100 units/mL penicillin, 100 μg/mL streptomycin, and 2 μmol/mL glutamine. In addition, 800 μg/mL Geneticin and 500 μg/mL hygromycin were added to the A2A media and to the A1 and A3 media, respectively. […] The concentration of protein was determined using a BCA Protein Assay Kit from Pierce Biotechnology (Rockford, Ill.).
The mixtures were incubated at 25° C. for 60 min. Binding reactions were terminated by filtration through Whatman GF/B filters under a reduced pressure using a MT-24 cell harvester (Brandell, Gaithersburg, Md.). Filters were washed three times with 5 ml of 50 mM ice-cold Tris-HCl buffer (pH 7.5). […] All of the filters were washed 3 times with Tris-HCl, pH 7.5. […] Filters for A3AR binding were counted using a PerkinElmer Cobra II γ-counter.
Test [2] concerns the target T1, hA1AR (Homo sapiens (Human), UniProt P30542). Description: Radioligand membrane binding at hA1AR (Example 6). The settings on record: CHO cells expressing hA1AR; [3H]R-PIA; n = 3-5; read-out: Affinity Ki, nM A1. The protocol:
(§1) In addition, 800 μg/mL Geneticin and 500 μg/mL hygromycin were added to the A2A media and to the A1 and A3 media, respectively. […] The concentration of protein was determined using a BCA Protein Assay Kit from Pierce Biotechnology (Rockford, Ill.).
(§2) Radioligand binding assays at A1, A2A, and A3ARs were performed according to the procedures described previously.
(§3) All of the filters were washed 3 times with Tris-HCl, pH 7.5. […] Filters for A3AR binding were counted using a PerkinElmer Cobra II γ-counter.
(§4) Binding and functional parameters were calculated using Prism 5.0 software (GraphPAD, San Diego, Calif., USA). IC50 values obtained from competition curves were converted to Ki values using the Cheng-Prusoff equation. Data were expressed as mean±standard error.

Test [3] deals with T1, hA1AR. The test is described as follows: A1AR functional assay, inhibition of forskolin-stimulated cyclic AMP production in AR-transfected CHO cells. Format: cell-based. The settings on record: CHO; read-out: % Inhibition, cyclic AMP A1.
Method: CHO cells that expressed the recombinant human or rat A3AR or the human A1 or A2BAR were harvested by trypsinization. After centrifugation and resuspended in medium, cells were planted in 24-well plates in 1.0 mL medium. […] The reaction was terminated by removing the supernatant, and cells were lysed upon the addition of 200 μL of 0.1 M ice-cold HCl. The cell lysate was resuspended and stored at −20° C. For determination of cyclic AMP production, protein kinase A (PKA) was incubated with [^3H]cyclic AMP (2 nM) in K2HPO4/EDTA buffer (K2HPO4, 150 mM; EDTA, 10 mM), 20 μL of the cell lysate, and 30 μL 0.1 M HCl or 50 μL of cyclic AMP solution (0-16 pmol/200 μL for standard curve). Bound radioactivity was separated by rapid filtration through Whatman GF/C filters and washed once with cold buffer. Bound radioactivity was measured by liquid scintillation spectrometry.
Intracellular cAMP levels were measured with a competitive protein binding method.
For test [4], the target named is hA2AAR (Homo sapiens (Human), UniProt P29274). The test is described as follows: Radioligand membrane binding at hA2AAR (Example 6). The settings on record: for Ki: HEK293 cells expressing hA2AAR, [3H]CGS21680, n = 3-5, read-out: Affinity Ki, nM A2A. The protocol: as §1, §2, §3, §4
Sequence of hA2AAR (P29274 whole entry): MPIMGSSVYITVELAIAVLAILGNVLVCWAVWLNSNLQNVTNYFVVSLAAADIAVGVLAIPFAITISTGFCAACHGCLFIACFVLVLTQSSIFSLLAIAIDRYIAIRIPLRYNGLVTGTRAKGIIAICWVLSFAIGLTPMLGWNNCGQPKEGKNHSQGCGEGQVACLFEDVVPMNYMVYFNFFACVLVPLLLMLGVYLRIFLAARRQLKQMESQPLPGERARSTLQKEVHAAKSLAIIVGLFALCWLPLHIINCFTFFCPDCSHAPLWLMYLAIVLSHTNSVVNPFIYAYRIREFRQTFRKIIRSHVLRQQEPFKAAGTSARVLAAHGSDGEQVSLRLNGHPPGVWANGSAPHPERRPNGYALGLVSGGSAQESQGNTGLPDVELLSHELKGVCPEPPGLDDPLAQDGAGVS

Sequence of hA3AR (P0DMS8 whole entry): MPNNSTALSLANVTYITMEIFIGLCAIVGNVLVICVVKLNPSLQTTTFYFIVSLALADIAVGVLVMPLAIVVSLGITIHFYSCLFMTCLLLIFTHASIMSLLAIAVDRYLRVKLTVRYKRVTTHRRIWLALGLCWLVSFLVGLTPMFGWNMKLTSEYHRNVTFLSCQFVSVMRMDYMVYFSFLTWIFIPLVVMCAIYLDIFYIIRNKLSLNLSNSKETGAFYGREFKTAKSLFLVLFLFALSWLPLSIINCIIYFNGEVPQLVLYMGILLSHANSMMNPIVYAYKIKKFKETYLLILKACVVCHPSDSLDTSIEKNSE
T1 sequence (P30542 whole entry): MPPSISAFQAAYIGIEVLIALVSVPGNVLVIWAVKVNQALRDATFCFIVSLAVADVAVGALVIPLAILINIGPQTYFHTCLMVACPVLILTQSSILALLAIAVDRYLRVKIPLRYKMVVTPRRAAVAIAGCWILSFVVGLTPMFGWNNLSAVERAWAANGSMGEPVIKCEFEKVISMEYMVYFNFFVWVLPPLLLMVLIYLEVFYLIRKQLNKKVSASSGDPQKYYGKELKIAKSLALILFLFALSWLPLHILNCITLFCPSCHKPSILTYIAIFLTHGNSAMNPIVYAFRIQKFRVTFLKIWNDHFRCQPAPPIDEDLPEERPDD

Broadly, the Ki is a measure of affinity in units of concentration, obtained from inhibition or displacement. In general, inhibition refers to the relative decrease from the control value, in per cent. Turning to `O[C@@H]1[C@H](O)[C@@H]2C[C@@H]2[C@H]1n1cnc2c(NC3CCCCC3)nc(Cl)nc21` [Compound 110, (1R,2R,3S,4R,5S)-4-(2-Chloro-6-(cyclohexylamino)-9H-purin-9-yl)bicyclo[3.1.0]hexane-2,3-diol], the inhibition constant Ki is 500 ± 120 nM in test [1], 140 ± 10 nM in test [2] and 2720 ± 450 nM in test [4]. For the same compound, the inhibition at 10 µM in test [3] was found to be 38 ± 17.6%.
On the same counts, the results for `O[C@@H]1[C@H](O)[C@@H]2C[C@@H]2[C@H]1n1cnc2c(NC3CCCCCC3)nc(Cl)nc21` [Compound 111, (1R,2R,3S,4R,5S)-4-(2-Chloro-6-(cycloheptylamino)-9H-purin-9-yl)bicyclo[3.1.0]hexane-2,3-diol] are 560 ± 90 nM, 230 ± 30 nM, 3930 ± 520 nM and 48.1 ± 10.2%.
With `CC(C)Nc1nc(Cl)nc2c1ncn2[C@H]1[C@H](O)[C@H](O)[C@@H]2C[C@@H]21` [Compound 117, (1R,2R,3S,4R,5S)-4-(2-Chloro-6-(isopropylamino)-9H-purin-9-yl)bicyclo[3.1.0]hexane-2,3-diol], the Ki is 12 ± 1 nM in test [1] and 72.2 ± 16.4 nM in test [2]. The inhibition at 10 µM in test [3] was found to be 50.5 ± 6.4%. The “(% inhibition) A2A” value in test [4] (percent inhibition of radioligand binding at 10 μM) is “(39%)”.
`CCC(CC)Nc1nc(Cl)nc2c1ncn2[C@H]1[C@H](O)[C@H](O)[C@@H]2C[C@@H]21` [Compound 118, (1R,2R,3S,4R,5S)-4-(2-Chloro-6-(pentan-3-ylamino)-9H-purin-9-yl)bicyclo[3.1.0]hexane-2,3-diol]: the inhibition constant (Ki) in test [1] amounted to 52 ± 14 nM; in test [2], 78.8 ± 15.6 nM; in test [4], 3700 ± 300 nM. In addition, the inhibition at 10 µM in test [3] was 28.6 ± 3.8%.
On the same counts, the results for `O[C@@H]1[C@H](O)[C@@H]2C[C@@H]2[C@H]1n1cnc2c(NCC3CC3)nc(Cl)nc21` [Compound 119, (1R,2R,3S,4R,5S)-4-(2-Chloro-6-(cyclopropylmethylamino)-9H-purin-9-yl)bicyclo[3.1.0]hexane-2,3-diol] are 8.9 ± 1.9 nM, 68.4 ± 8.9 nM, 4410 ± 1090 nM and 81 ± 21.1%.
For `CC[C@@H](Nc1nc(Cl)nc2c1ncn2[C@H]1[C@H](O)[C@H](O)[C@@H]2C[C@@H]21)C1CC1` [Compound 212, (1R,2R,3S,4R,5S)-4-(2-Chloro-6-((R)-1-cyclopropylpropylamino)-9H-purin-9-yl)bicyclo[3.1.0]hexane-2,3-diol], the Ki is 150 ± 2 nM in test [1], 68.1 ± 5 nM in test [2] and 3610 ± 500 nM in test [4]. Moreover, the inhibition at 10 µM in test [3] was determined as 37.3 ± 4.3%.
On the same counts, the results for `CC[C@H](Nc1nc(Cl)nc2c1ncn2[C@H]1[C@H](O)[C@H](O)[C@@H]2C[C@@H]21)C1CC1` [Compound 213, (1R,2R,3S,4R,5S)-4-(2-Chloro-6-((S)-1-cyclopropylpropylamino)-9H-purin-9-yl)bicyclo[3.1.0]hexane-2,3-diol] are 780 ± 70 nM, 150 ± 10 nM, 4910 ± 430 nM and 57.9 ± 1.1%.
On the same counts, the results for `CC(C)[C@@H](Nc1nc(Cl)nc2c1ncn2[C@H]1[C@H](O)[C@H](O)[C@@H]2C[C@@H]21)C1CC1` [Compound 214, (1R,2R,3S,4R,5S)-4-(2-Chloro-6-((R)-1-cyclopropyl-2-methyl-propylamino)-9H-purin-9-yl)bicyclo[3.1.0]hexane-2,3-diol] are 780 ± 80 nM, 76 ± 8 nM, 1570 ± 180 nM and 33.8 ± 2.3%.
On the same counts, the results for `CC(C)[C@H](Nc1nc(Cl)nc2c1ncn2[C@H]1[C@H](O)[C@H](O)[C@@H]2C[C@@H]21)C1CC1` [Compound 215, (1R,2R,3S,4R,5S)-4-(2-Chloro-6-((S)-1-cyclopropyl-2-methyl-propylamino)-9H-purin-9-yl)bicyclo[3.1.0]hexane-2,3-diol] are 1720 ± 140 nM, 150 ± 50 nM, 3650 ± 370 nM and 20.8 ± 6.1%.
